From the NIST ThermoML archive (doi:10.1016/j.jct.2011.07.003)
Where “and” joins values, the source holds several entries; their conditions need not be identical. Equal entries are not always repeated. ± gives the expanded uncertainty stated by the source.

Details: Calculated from knudsen effusion weight loss

| vapor or sublimation pressure (337.2 K, Crystal) | vapor or sublimation pressure (318.47 K, Crystal 2) | vapor or sublimation pressure (328.2 K, Crystal 2) | SMILES | vapor or sublimation pressure (321.79 K, Crystal) | vapor or sublimation pressure (328.88 K, Crystal) | vapor or sublimation pressure (345.77 K, Crystal) | vapor or sublimation pressure (352.86 K, Crystal) | vapor or sublimation pressure (360.64 K, Crystal) | vapor or sublimation pressure (295.73 K, Crystal 2) | vapor or sublimation pressure (302.13 K, Crystal 2) | vapor or sublimation pressure (307.66 K, Crystal 2) | vapor or sublimation pressure (313.1 K, Crystal 2) | vapor or sublimation pressure (323 K, Crystal 2) | vapor or sublimation pressure (332.95 K, Crystal 2) |
| --- | --- | --- | --- | --- | --- | --- | --- | --- | --- | --- | --- | --- | --- | --- |
| 9.3e-05 ± 5e-06 kPa [middle of 7 runs] | – | – | c1ccc2cc3ccccc3cc2c1 [anthracene] | 1.7e-05 ± 1e-06 kPa and 1.8e-05 ± 1e-06 kPa and 1.9e-05 ± 1e-06 kPa | 3.9e-05 ± 2e-06 kPa and 3.7e-05 ± 2e-06 kPa and 4e-05 ± 2e-06 kPa | 0.000236 ± 1.2e-05 kPa [middle of 6 runs] | 0.000473 ± 2.4e-05 kPa [middle of 6 runs] | 0.000988 ± 4.9e-05 kPa [middle of 5 runs] | – | – | – | – | – | – |
| – | 0.000208 ± 1e-05 kPa [middle of 6 runs] | 0.00059 ± 3e-05 kPa [middle of 6 runs] | c1ccc2c(c1)ccc1ccccc12 [phenanthrene] | – | – | – | – | – | 1.4e-05 ± 1e-06 kPa and 1.5e-05 ± 1e-06 kPa | 3.2e-05 ± 2e-06 kPa and 3.1e-05 ± 2e-06 kPa | 6.1e-05 ± 3e-06 kPa and 6.4e-05 ± 3e-06 kPa and 6.2e-05 ± 3e-06 kPa | 0.000118 ± 6e-06 kPa and 0.000119 ± 6e-06 kPa | 0.000341 ± 1.7e-05 kPa [middle of 5 runs] | 0.000959 ± 4.8e-05 kPa [middle of 6 runs] |
